Measured values as given in patent publication US20230074252A1, “DOSAGES AND METHODS FOR TREATING PULMONARY ARTERIAL HYPERTENSION WITH RODATRISTAT” (Altavant Sciences GmbH, priority 2020, published 2023).
Where two headings read alike, the source gives them in different places.

Key:
CYP2C8 = molecular target: T1, CYP2C8 (Homo sapiens, UniProt P10632); assay: In vitro CYP substrate assessment (victim potential); assay type: in vitro ADME
T1 sequence (P10632 1-490): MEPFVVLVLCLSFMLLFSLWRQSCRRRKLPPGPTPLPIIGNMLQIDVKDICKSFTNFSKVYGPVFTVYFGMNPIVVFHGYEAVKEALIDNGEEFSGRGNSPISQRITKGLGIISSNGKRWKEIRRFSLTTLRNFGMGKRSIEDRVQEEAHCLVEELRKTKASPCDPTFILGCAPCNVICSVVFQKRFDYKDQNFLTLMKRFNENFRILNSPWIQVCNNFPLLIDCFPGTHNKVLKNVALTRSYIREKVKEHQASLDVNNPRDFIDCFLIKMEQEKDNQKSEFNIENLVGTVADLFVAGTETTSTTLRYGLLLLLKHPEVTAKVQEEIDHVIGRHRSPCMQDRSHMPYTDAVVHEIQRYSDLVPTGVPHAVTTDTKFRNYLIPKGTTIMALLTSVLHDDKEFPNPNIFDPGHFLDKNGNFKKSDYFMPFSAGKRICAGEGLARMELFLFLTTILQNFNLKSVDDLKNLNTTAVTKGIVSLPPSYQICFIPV

CYP2D6 = CYP2D6 (Homo sapiens, UniProt P10635); assay: as above; assay type: in vitro ADME
CYP isoforms = assay: Time-dependent CYP inhibition (overall statement); assay type: in vitro ADME, human
[1] = Predicted plasma Cmax for 600 mg rodatristat ethyl BID (ELEVATE1/ELEVATE2); set-up: species or system human; details: for Unbound Cmax: 600 mg BID, conservative 1% free fraction; for Predicted mean maximum plasma concentration (Cmax) / Cmax: 600 mg rodatristat ethyl BID, plasma; for Cmax: read-out: Predicted mean maximum plasma concentration (Cmax)
Protocol: The potential for rodatristat ethyl or rodatristat to be perpetrators of drug-drug interactions was assessed across in vitro CYP and transporter studies (Tables 1-4). […] This analysis was performed to assess the potential for clinically meaningful DDIs as recommended in FDA Draft Guidance: “In Vitro Metabolism- and Transporter-Mediated Drug-Drug Interaction Studies Guidance for Industry”; October 2017 (FDA, 2017).
R1 and R3 values using free (non-protein bound) drug levels were calculated based on plasma protein binding (fraction bound, fb) of rodatristat ethyl (0.995) and rodatristat (0.991). The FDA Guidance is set forth In Vitro Metabolism- and Transporter-Mediated Drug-Drug Interaction Studies Guidance for Industry (2017). […] Parameters for the prediction are set forth below in Tables 5 and 6.

CYP1A2 = assay: CYP mRNA induction, cultured human hepatocytes from 3 donors; assay type: in vitro ADME; details: clinically relevant concentrations
Protocol: (§1) “mM^”=millimolar. CYP induction was evaluated using cultured human hepatocytes (from 3 donors) treated once daily for 3 days with RE/R concentrations to […].
(§2) CYP induction was evaluated in vitro using cultured human hepatocytes from 3 donors. Rodatristat ethyl and rodatristat caused negligible induction of CYP1A2 (<2% control for the most sensitive responder), CYP2B6 (mean±SD values relative to control of 16.2±20.0% and 15.0±17.9%, respectively), and CYP3A4 (7.1±6.41% and 10.3±11.9%, respectively) mRNA at 20 μM (the highest concentration studied). […] The highest values for induction of CYP2B6 by an individual donor at all concentrations tested were 60.1% and 57.4% at 10 μM for rodatristat ethyl and rodatristat, respectively, and for CYP3A4 were 13.3% and 23.0% at 20 μM, respectively.
(§3) The induction of specific CYP isoforms (CYP1A2, CYP2B6, CYP3A4) was investigated for RVT-1201 and KAR5417 in human hepatocytes (HH) (XT153040). […] CYP2B6 and CYP3A4 mRNA induction by RVT-1201 and KAR5417 (Emax and EC50) were used to estimate the PBPK model parameters Indmax and IndC50. Within the PBPK model, IndC50 is equal to EC50, the concentration of inducer that supports half maximal induction of the CYP isoform (estimated by a sigmoid three parameter fit to in vitro concentration-dependent mRNA induction data). Within the PBPK model, Indmax represents the maximum fold induction relative to incubation with vehicle only (vehicle=1). The reported Emax for RVT-1201 and KAR5417 was estimated by sigmoid three parameter fit to in vitro concentration-dependent mRNA induction data. Baseline activity was set equal to zero, rather than one, therefore reported Emax was increased by adding one to each value to estimate Indmax. CYP2B6 induction data was used in the PBPK model as reported. CYP3A4 induction data was scaled based on the maximum induction by rifampin (at 20 μM). Scaling of CYP3A4 induction using rifampin data from the same system leverages the extensive literature on rifampin induction in vitro and in vivo and allows adjustment of in vitro induction data based on the relative performance of rifampin in each in vitro incubation, and the empirical relationship between rifampin induction of CYP3A4 in vitro and in vivo.

CYP2B6 = assay: as above; assay type: in vitro ADME; details: for Highest induction of CYP2B6 by an individual donor: 10 μM; for Induction of CYP2B6 mRNA, mean±SD relative to control: 20 μM; for Inducer classification, CYP2B6: clinically relevant concentrations; for In vitro induction parameter Emax, CYP2B6 / EC50: mRNA, human hepatocytes; for EC50: read-out: In vitro induction parameter EC50, CYP2B6; for Calculated R3 Value, CYP2B6: predicted @ 600 mg BID
Protocol: as §1, §2, §3

CYP3A4 = assay: as above; assay type: in vitro ADME; details: for Highest induction of CYP3A4 by an individual donor / Induction of CYP3A4 mRNA, mean±SD relative to control: 20 μM; for Inducer classification, CYP3A4: clinically relevant concentrations; for In vitro induction parameter Emax, CYP3A4 / EC50: mRNA, human hepatocytes; for EC50: read-out: In vitro induction parameter EC50, CYP3A4; for Calculated R3 Value, CYP3A4: predicted @ 600 mg BID
Protocol: as §1, §2, §3

CYP2C9 = CYP2C9 (Homo sapiens, UniProt P11712); assay: In vitro CYP substrate assessment (victim potential); assay type: in vitro ADME
CYP3A4/5 = CYP3A4/5 (Homo sapiens, UniProt P08684); assay: Direct and time-dependent CYP inhibition, pooled human liver microsomes; assay type: in vitro ADME
Protocol: as §1
The competitive inhibition of specific CYP isoforms was investigated for RVT-1201 and KAR5417 in human liver microsomes (HLM) (XT155056). Of the […] evaluated in vitro (CYP1A2, CYP2B6, CYP2C8, CYP2C9, CYP2D6, CYP3A4, CYP3A5), RVT-1201 IC50 estimates were determined for CYP2B6, CYP2C8 and CYP3A4 only. […] For each IC50 estimate, substrate concentration and Km were used to estimate RVT-1201 and KAR5417 Ki.

[2] = predicted @ 600 mg BID, testosterone

Chain of CYP3A4/5 (P08684 2-503): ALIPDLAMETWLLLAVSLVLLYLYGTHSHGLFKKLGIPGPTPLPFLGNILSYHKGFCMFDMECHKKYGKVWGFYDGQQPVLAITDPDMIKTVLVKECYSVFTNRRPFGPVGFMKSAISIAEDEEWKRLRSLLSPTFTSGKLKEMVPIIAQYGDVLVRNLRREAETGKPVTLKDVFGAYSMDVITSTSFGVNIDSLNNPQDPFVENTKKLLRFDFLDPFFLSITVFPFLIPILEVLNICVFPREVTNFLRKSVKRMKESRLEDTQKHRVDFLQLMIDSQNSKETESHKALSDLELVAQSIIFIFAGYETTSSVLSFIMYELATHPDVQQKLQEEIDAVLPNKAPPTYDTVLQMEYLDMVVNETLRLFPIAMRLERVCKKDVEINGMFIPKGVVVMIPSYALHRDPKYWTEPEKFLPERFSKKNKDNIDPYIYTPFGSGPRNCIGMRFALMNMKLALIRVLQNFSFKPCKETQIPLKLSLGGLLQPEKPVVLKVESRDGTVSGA
Chain of CYP2C9 (P11712 whole entry): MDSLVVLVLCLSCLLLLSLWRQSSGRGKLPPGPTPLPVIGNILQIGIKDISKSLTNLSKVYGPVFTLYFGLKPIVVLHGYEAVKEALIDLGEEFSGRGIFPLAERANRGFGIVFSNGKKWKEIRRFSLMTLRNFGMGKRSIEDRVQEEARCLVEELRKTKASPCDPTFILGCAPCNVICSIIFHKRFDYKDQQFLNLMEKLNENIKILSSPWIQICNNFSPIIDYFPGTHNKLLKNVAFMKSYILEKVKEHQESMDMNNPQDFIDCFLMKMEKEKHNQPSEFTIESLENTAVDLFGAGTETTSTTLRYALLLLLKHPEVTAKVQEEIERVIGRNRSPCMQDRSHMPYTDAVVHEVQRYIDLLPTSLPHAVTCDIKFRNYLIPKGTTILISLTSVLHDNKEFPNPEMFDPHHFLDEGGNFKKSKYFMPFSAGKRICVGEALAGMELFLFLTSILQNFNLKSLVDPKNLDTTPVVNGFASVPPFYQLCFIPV
Chain of CYP2D6 (P10635 whole entry, canonical isoform): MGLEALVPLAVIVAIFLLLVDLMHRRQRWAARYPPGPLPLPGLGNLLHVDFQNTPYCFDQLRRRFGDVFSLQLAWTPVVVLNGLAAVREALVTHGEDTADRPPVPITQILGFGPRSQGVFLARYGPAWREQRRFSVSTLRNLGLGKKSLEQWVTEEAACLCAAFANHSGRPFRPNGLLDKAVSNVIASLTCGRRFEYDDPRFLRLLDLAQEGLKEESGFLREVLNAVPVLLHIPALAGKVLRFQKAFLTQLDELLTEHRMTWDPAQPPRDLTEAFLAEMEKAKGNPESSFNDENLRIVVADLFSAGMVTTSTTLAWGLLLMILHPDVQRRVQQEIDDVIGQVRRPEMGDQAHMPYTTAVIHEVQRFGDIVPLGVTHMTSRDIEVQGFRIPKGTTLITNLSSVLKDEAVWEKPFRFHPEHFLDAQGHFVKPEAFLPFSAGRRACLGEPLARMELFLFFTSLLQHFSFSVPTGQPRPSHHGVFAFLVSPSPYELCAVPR

| In vitro substrate? CYP2C8 (CYP2C8) | In vitro substrate? CYP2D6 (CYP2D6) | Unbound Cmax [1] | Predicted mean maximum plasma concentration (Cmax) [1] | Cmax [1] | Inducer classification, CYP1A2 (CYP1A2) | Highest induction of CYP2B6 by an individual donor (CYP2B6) | Induction of CYP2B6 mRNA, mean±SD relative to control (CYP2B6) | Inducer classification, CYP2B6 (CYP2B6) | In vitro induction parameter Emax, CYP2B6 (CYP2B6) | EC50 (CYP2B6) | Calculated R3 Value, CYP2B6 (CYP2B6) | Highest induction of CYP3A4 by an individual donor (CYP3A4) | Induction of CYP3A4 mRNA, mean±SD relative to control (CYP3A4) | Inducer classification, CYP3A4 (CYP3A4) | In vitro induction parameter Emax, CYP3A4 (CYP3A4) | EC50 (CYP3A4) | Calculated R3 Value, CYP3A4 (CYP3A4) | In vitro substrate? CYP2C9 (CYP2C9) | SMILES | further results |
| --- | --- | --- | --- | --- | --- | --- | --- | --- | --- | --- | --- | --- | --- | --- | --- | --- | --- | --- | --- | --- |
| No | No | 0.0025 µM | 149 ng/mL | 252 nM | not considered inducers | 60.1% | 16.2±20.0% | potentially weak to moderate inducers | 3.1 | 6.16 µM | 0.960 | 13.3% | 7.1±6.41% | potential weak inducers | 4.53 | 15.6 µM | 0.925 | No | CCOC(=O)[C@@H]1CC2(CCN(c3cc(O[C@H](c4ccc(Cl)cc4-c4ccccc4)C(F)(F)F)nc(N)n3)CC2)CN1 [Rodatristat ethyl, (S)-ethyl 8-(2-amino-6-((R)-1-(5-chloro-[1,1′-biphenyl]-2-yl)-2,2,2-trifluoroethoxy)pyrimidin-4-yl)-2,8-diazaspiro[4.5]decane-3-carboxylate] | Time-dependent inhibition of CYP isoforms (CYP isoforms): not time-dependent CYP inhibitors; Calculated R3 Value, CYP3A4 (CYP3A4; listed as rodatristat ethyl): 0.478; IC50 (CYP3A4/5; human, pooled human liver microsomes, probe midazolam (1′ hydroxylation), midazolam 1′ hydroxylation, read-out: In vitro IC50, direct inhibition, CYP3A4): 13 µM; IC50 (CYP3A4/5; human, pooled human liver microsomes, probe testosterone (6β hydroxylation), testosterone 6β hydroxylation, read-out: In vitro IC50, direct inhibition, CYP3A4 (T)): 23 µM; Calculated R1 Value, CYP3A4 (T) (CYP3A4/5; [2]): <1.02; R1gut, CYP3A4 (T) (CYP3A4/5; [2]): R1gut = 355 |
| No | No | 0.02 µM | 1130 ng/mL | 2010 nM | not considered inducers | 57.4% | 15.0±17.9% | potentially weak to moderate inducers | 2.95 | 5.6 µM | 0.766 | 23.0% | 10.3±11.9% | potential weak inducers | 4.5 | 26.7 µM | 0.476 | No | Nc1nc(O[C@H](c2ccc(Cl)cc2-c2ccccc2)C(F)(F)F)cc(N2CCC3(CC2)CN[C@H](C(=O)O)C3)n1 [Rodatristat, (S)-8-(2-amino-6-((R)-1-(5-chloro-[1,1′-biphenyl]-2-yl)-2,2,2-trifluoroeth-oxy)pyrimidin-4-yl)-2,8-diazaspiro[4.5]decane-3-carboxylic acid] | Time-dependent inhibition of CYP isoforms (CYP isoforms; listed as rodatristat): not time-dependent CYP inhibitors; Unbound Cmax ([1]; listed as rodatristat): 0.0201 µM; inhibition at 30 µM (CYP3A4/5; human, pooled human liver microsomes, 30 μM, range given across CYPs 2B6, 2C9 and 3A4/5): 27 to 45%; IC50 (CYP3A4/5; human, pooled human liver microsomes, probe substrate not stated, read-out: IC50, CYP3A4/5): > 30 µM |
